# PubChem BioAssay (NCI)
#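 Dose response: 5 concentrations. Exposure: 48 h. Format: 96-well plates. Endpoint: linear interpolation; highest concentration if not reached. GI50 is the concentration that inhibits growth by half. At the TGI there is no net growth.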
# What was measured:
# Assay in all cases: NCI anticancer screen, dose series, 48 h
# [1] = test system: MCF7 breast
# [2] = test system: RPMI-8226 leukemia
# [3] = test system: COLO 205 colon
# [4] = test system: HT29 colon
# [5] = test system: CAKI-1 renal
# [6] = test system: EKVX NSCLC
# [7] = test system: NCI/ADR-RES ovarian
# [8] = test system: A549 NSCLC
# [9] = test system: SF-539 CNS
# [10] = test system: HOP-62 NSCLC
# [11] = test system: KM12 colon
# [12] = test system: BT-549 breast
# [13] = test system: MOLT-4 leukemia
# [14] = test system: NCI-H522 lung
# [15] = test system: IGROV1 ovarian
# [16] = test system: ACHN renal
# [17] = test system: RXF 393 renal
# [18] = test system: A498 renal
# [19] = test system: SF-268 CNS
# [20] = test system: U251 CNS
# [21] = test system: HCT-116 colon
# [22] = test system: MDA-MB-435
# [23] = test system: NCI-H460 lung
# [24] = test system: OVCAR-5 ovarian
# [25] = test system: SW-620 colon
# [26] = test system: NCI-H226 lung
# [27] = test system: SF-295 CNS
# [28] = test system: 786-0 renal
# [29] = test system: UACC-257 melanoma
# [30] = test system: SK-MEL-2 melanoma
# [31] = test system: HCC-2998 colon
# [32] = test system: HOP-92 NSCLC
# [33] = test system: M14 melanoma
# [34] = test system: K-562 leukemia
# [35] = test system: HS 578T breast
# [36] = test system: SK-MEL-5 melanoma
# [37] = test system: SR leukemia
# [38] = test system: SNB-75 CNS
# [39] = test system: MDA-MB-231 breast
# [40] = test system: OVCAR-4 ovarian
# [41] = test system: HL-60(TB) leukemia
# [42] = test system: PC-3 prostate
# [43] = test system: SN12C renal
# [44] = test system: SK-MEL-28 melanoma
# [45] = test system: HCT-15 colon
# [46] = test system: UACC-62 melanoma
# [47] = test system: OVCAR-8 ovarian
# [48] = test system: UO-31 renal
# [49] = test system: SNB-19 CNS
# [50] = test system: DU-145 prostate
# [51] = test system: CCRF-CEM leukemia
# [52] = test system: OVCAR-3 ovarian
# [53] = test system: LOX IMVI melanoma
# [54] = test system: TK-10 renal
# [55] = test system: SK-OV-3 ovarian
# [56] = test system: MALME-3M melanoma
# [57] = test system: NCI-H23 lung
# [58] = test system: T-47D breast
structure (smiles),measurement,setting,value
Cc1cc(N)c2ccccc2[n+]1CCCCCCCCCCNc1cc(C)[n+](CCCCCCCCCC[n+]2c(C)cc(N)c3ccccc32)c2ccccc12,TGI,[1],> 100 µM
same,TGI,[2],1.52 µM
same,TGI,[3],> 100 µM
same,TGI,[4],29 µM
same,TGI,[5],> 100 µM
same,TGI,[6],33.7 µM
CC1SC(c2ccccc2Cl)N(NC(=O)C(O)c2ccccc2)C1=O (configuration not stated),GI50,[7],66 µM
same,TGI,[7],> 100 µM
same,GI50,[8],52.3 µM
same,TGI,[8],> 100 µM
same,GI50,[9],> 100 µM
same,TGI,[9],> 100 µM
same,GI50,[10],> 100 µM
same,TGI,[10],> 100 µM
same,GI50,[11],> 100 µM
same,TGI,[11],> 100 µM
same,GI50,[12],> 100 µM
same,TGI,[12],> 100 µM
same,GI50,[13],50.4 µM
same,TGI,[13],> 100 µM
same,GI50,[14],54.4 µM
same,TGI,[14],> 100 µM
same,GI50,[15],73.1 µM
same,TGI,[15],> 100 µM
same,GI50,[16],55.8 µM
same,TGI,[16],> 100 µM
same,GI50,[17],> 100 µM
same,TGI,[17],> 100 µM
same,GI50,[18],67.8 µM
same,TGI,[18],> 100 µM
same,GI50,[1],54.6 µM
same,TGI,[1],> 100 µM
same,GI50,[2],45 µM
same,TGI,[2],> 100 µM
same,GI50,[19],> 100 µM
same,TGI,[19],> 100 µM
same,GI50,[20],66.9 µM
same,TGI,[20],> 100 µM
same,GI50,[4],> 100 µM
same,TGI,[4],> 100 µM
same,GI50,[21],96.1 µM
same,TGI,[21],> 100 µM
same,GI50,[22],> 100 µM
same,TGI,[22],> 100 µM
same,GI50,[23],66.9 µM
same,TGI,[23],> 100 µM
same,GI50,[24],> 100 µM
same,TGI,[24],> 100 µM
same,GI50,[25],> 100 µM
same,TGI,[25],> 100 µM
same,GI50,[26],> 100 µM
same,TGI,[26],> 100 µM
same,GI50,[27],32.4 µM
same,TGI,[27],> 100 µM
same,GI50,[28],> 100 µM
same,TGI,[28],> 100 µM
same,GI50,[29],49.5 µM
same,TGI,[29],> 100 µM
same,GI50,[30],> 100 µM
same,TGI,[30],> 100 µM
same,GI50,[31],> 100 µM
same,TGI,[31],> 100 µM
same,GI50,[32],> 100 µM
same,TGI,[32],> 100 µM
same,GI50,[5],44.6 µM
same,TGI,[5],> 100 µM
same,GI50,[33],94.3 µM
same,TGI,[33],> 100 µM
same,GI50,[34],58.5 µM
same,TGI,[34],> 100 µM
same,GI50,[35],85.3 µM
same,TGI,[35],> 100 µM
same,GI50,[36],63.9 µM
same,TGI,[36],> 100 µM
same,GI50,[37],40 µM
same,TGI,[37],> 100 µM
same,GI50,[38],> 100 µM
same,TGI,[38],> 100 µM
same,GI50,[39],33.8 µM
same,TGI,[39],> 100 µM
same,GI50,[40],> 100 µM
same,TGI,[40],> 100 µM
same,GI50,[41],82.4 µM
same,TGI,[41],> 100 µM
same,GI50,[42],45.6 µM
same,TGI,[42],> 100 µM
same,GI50,[43],> 100 µM
same,TGI,[43],> 100 µM
same,GI50,[6],> 100 µM
same,TGI,[6],> 100 µM
same,GI50,[44],> 100 µM
same,TGI,[44],> 100 µM
same,GI50,[45],66.9 µM
same,TGI,[45],> 100 µM
same,GI50,[46],45 µM
same,TGI,[46],> 100 µM
same,GI50,[47],> 100 µM
same,TGI,[47],> 100 µM
same,GI50,[48],74.9 µM
same,TGI,[48],> 100 µM
same,GI50,[49],> 100 µM
same,TGI,[49],> 100 µM
same,GI50,[50],> 100 µM
same,TGI,[50],> 100 µM
same,GI50,[51],> 100 µM
same,TGI,[51],> 100 µM
same,GI50,[52],35.4 µM
same,TGI,[52],> 100 µM
same,GI50,[53],> 100 µM
same,TGI,[53],> 100 µM
same,GI50,[54],31 µM
same,TGI,[54],> 100 µM
CN(C)c1ccc(/C=C/C=c2/c3ccccc3n3c2cc(-c2ccccc2)[n+]3C)cc1,TGI,[7],> 100 µM
same,TGI,[10],1.19 µM
same,TGI,[13],0.724 µM
same,TGI,[16],1.63 µM
same,TGI,[17],1.62 µM
same,TGI,[18],1.23 µM
same,TGI,[26],1.82 µM
same,TGI,[5],1.17 µM
same,TGI,[34],> 100 µM
same,TGI,[40],2.11 µM
same,TGI,[41],0.509 µM
same,TGI,[42],1.17 µM
same,TGI,[6],1.57 µM
same,TGI,[50],1.03 µM
same,TGI,[51],> 100 µM
CSc1ccc(C2=NN(C(C)=O)C(c3ccc(-c4cc(Cl)c(Cl)cc4Cl)o3)C2)cc1 (configuration not stated),GI50,[7],16.7 µM
same,TGI,[7],34.1 µM
same,GI50,[8],17 µM
same,TGI,[8],33 µM
same,GI50,[9],15.8 µM
same,TGI,[9],29.5 µM
same,GI50,[10],15.8 µM
same,TGI,[10],29.4 µM
same,GI50,[55],16.7 µM
same,TGI,[55],38.8 µM
same,GI50,[11],16.9 µM
same,TGI,[11],35.7 µM
same,GI50,[12],16.6 µM
same,TGI,[12],30.8 µM
same,GI50,[13],12.1 µM
same,TGI,[13],35.3 µM
same,GI50,[14],13.2 µM
same,TGI,[14],29.7 µM
same,GI50,[15],9.99 µM
same,TGI,[15],24.9 µM
same,GI50,[16],15.8 µM
same,TGI,[16],29.9 µM
same,GI50,[17],17.6 µM
same,TGI,[17],35.1 µM
same,GI50,[1],12.5 µM
same,TGI,[1],26.5 µM
same,GI50,[2],10.9 µM
same,TGI,[2],41 µM
same,GI50,[19],16.3 µM
same,TGI,[19],32.2 µM
same,GI50,[56],19.5 µM
same,TGI,[56],39.9 µM
same,GI50,[3],16.8 µM
same,TGI,[3],32.1 µM
same,GI50,[20],16.9 µM
same,TGI,[20],30.6 µM
same,GI50,[4],12.9 µM
same,TGI,[4],26.7 µM
same,GI50,[21],10.3 µM
same,TGI,[21],21.9 µM
same,GI50,[22],15.5 µM
same,TGI,[22],36.4 µM
same,GI50,[57],15.4 µM
same,TGI,[57],29.6 µM
same,GI50,[23],17.2 µM
same,TGI,[23],32.2 µM
same,GI50,[24],14.3 µM
same,TGI,[24],27.4 µM
same,GI50,[25],18.5 µM
same,TGI,[25],33.2 µM
same,GI50,[26],13.9 µM
same,TGI,[26],27.3 µM
same,GI50,[27],18.3 µM
same,TGI,[27],45.5 µM
same,GI50,[28],18.9 µM
same,TGI,[28],32.9 µM
same,GI50,[29],22.8 µM
same,TGI,[29],42.7 µM
same,GI50,[30],16.8 µM
same,TGI,[30],35.1 µM
same,GI50,[31],15.8 µM
same,TGI,[31],29.6 µM
same,GI50,[32],11.2 µM
same,TGI,[32],23.6 µM
same,GI50,[5],19.2 µM
same,TGI,[5],43.2 µM
same,GI50,[34],14.8 µM
same,TGI,[34],34.2 µM
same,GI50,[35],22.8 µM
same,TGI,[35],53 µM
same,GI50,[36],12.6 µM
same,TGI,[36],25.1 µM
same,GI50,[38],18.7 µM
same,TGI,[38],43.2 µM
same,GI50,[39],11.3 µM
same,TGI,[39],23.3 µM
same,GI50,[40],13.4 µM
same,TGI,[40],26.8 µM
same,GI50,[41],12 µM
same,TGI,[41],30.4 µM
same,GI50,[42],11.2 µM
same,TGI,[42],30.7 µM
same,GI50,[43],14.5 µM
same,TGI,[43],27.6 µM
same,GI50,[6],14.9 µM
same,TGI,[6],30.6 µM
same,GI50,[44],16.2 µM
same,TGI,[44],29.7 µM
same,GI50,[45],14.8 µM
same,TGI,[45],28 µM
same,GI50,[46],10.2 µM
same,TGI,[46],21.8 µM
same,GI50,[47],16.9 µM
same,TGI,[47],36.9 µM
same,GI50,[48],12.4 µM
same,TGI,[48],25.4 µM
same,GI50,[49],17.9 µM
same,TGI,[49],32.3 µM
same,GI50,[50],15.5 µM
same,TGI,[50],29 µM
same,GI50,[51],21.5 µM
same,TGI,[51],47 µM
same,GI50,[58],11.9 µM
same,TGI,[58],37.2 µM
same,GI50,[52],15.3 µM
same,TGI,[52],37.8 µM
same,GI50,[53],15.4 µM
same,TGI,[53],28.7 µM
same,GI50,[54],24.8 µM
same,TGI,[54],50.3 µM
